# Source: US20110173718A1, “HERBICIDE TOLERANT PLANTS” (SYNGENTA CROP PROTECTION, INC., priority 2008, published 2011)
# Tests used:
# Assay type in all cases: in vivo
# [1] = tested on: wild-type (WT) Samsun tobacco; assay: Glasshouse spray test, wild-type tobacco; details: for % damage observed 16 DAT: w/t tobacco; for score on a scale from 0 to 10 (0 substantially bleached/burnt, meristem dead/white; 10 entire plant green and undamaged): 500 g/ha, 11 DAT
# Summary of the method: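 Wild-type Samsun tobacco grown from seed was planted in 3 inch pots, grown on under glasshouse conditions (about 24-27° C. day, 18-21° C. night, ~14 h photoperiod, ~65% humidity) and spray-treated alongside transgenic lines. Test chemicals were formulated in water with 0.2% X77 surfactant and applied by track sprayer at 200 l/ha. Height reduction, bleaching and damage were scored against unsprayed control plants of like size.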
# [2] = tested on: weeds; assay: Glasshouse weed control, HST inhibitors alone and with A22, pre-emergence; details: 14 DAT
# Summary of the method: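 Weeds grown in glasshouse trays (24-27 C day, 18-21 C night, ~15 h photoperiod) and track-sprayed in 0.2% X77 at […], pre-emergence or post-emergence at about 7-12 d. HPPD inhibitor A22 applied at 2 g/ha alone or mixed with HST herbicides. Damage scored 0–100% at 14 DAT; synergy calculated by Colby formula.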
# [3] = tested on: tobacco plants expressing Wheat HPPD; assay: Glasshouse spray test, wheat HPPD transgenic tobacco; details: Wheat HPPD T1
# Description: (§1) Transgenic lines of tobacco, soyabean and corn etc. can be engineered to express various heterologous HPPDs derived from, for example Avena (SEQ ID #26), Wheat (SEQ ID #27), Pseudomonas fluorescens (SEQ ID # 25) and Shewanella colwelliana (SEQ ID #28) as, for example, described in WO 02/46387.
# Single copy events amongst the T1 plant lines are identified by their 3:1 segregation ratio (wrt kanamycin and or herbicide) and by quantitative RT-PCR. Seed from the thus selected T1 tobacco (var Samsun) lines are sown in 3 inch diameter pots containing 50% peat, 50% John Innes soil no 3. After growth to the 3 leaf stage, plants are sprayed, as described above, in order to test for herbicide tolerance relative to like-treated non-transgenic tobacco plants. […]
# Exactly as described in example 5 of WO 02/46387 the wheat HPPD gene sequence (Embl DD064495) is cloned behind an Arabidopsis Rubisco small subunit (SSU) promoter and in front of a nos gene terminator to produce an SSU Wheat HPPD nos expression cassette' which is cloned into a binary vector and transformed into tobacco to produce a population of 30-50 transgenic events.
# [4] = tested on: tobacco plants expressing Pseudomonas fluorescens HPPD; assay: Glasshouse spray test, Pseudomonas HPPD transgenic tobacco; details: Pseudomonas HPPD T1
# Description: Tobacco plants expressing the wild-type HPPD gene of Pseudomonas fluorescens strain 87-79 under operable control of the double enhanced 35S CMV promoter region, Nos3′ terminator and TMV translational enhancer were provided as detailed in Example 4 of WO0246387.
# Seed of wild-type tobacco plants, C2 tobacco plants and of the T1 progeny of a further Arabidopsis-HST expressing tobacco line, D2 were planted out in 3 inch pots, grown on, sprayed with compounds 1.1, 2.30 and 3.6 at the rates shown in table 5. Percent damage scores were assessed at 7 DAT. Aside from the presumptive non-transgenic segregants the D2 line containing the Arabidopis HST expression construct offered the highest level of tolerance to the two HST herbicides with the Psuedomonas HPPD, C2 line, offering only marginal tolerance under the conditions of this test.
# as §1
# Single copy events amongst the T1 plant lines are identified by their 3:1 segregation ratio (wrt kanamycin and or herbicide) and by quantitative RT-PCR. Seed from the thus selected T1 tobacco (var Samsun) lines are sown in 3 inch diameter pots containing 50% peat, 50% John Innes soil no 3. After growth to the 3 leaf stage, plants are sprayed, as described above, in order to test for herbicide tolerance relative to like-treated non-transgenic tobacco plants.
# Control tobacco plants and transgenic T1 plants expressing either the Pseudomonas or the wheat HPPD gene are sprayed at 37, 111, 333 and 1000 g/ha rates of HST inhibitors and, for example, compound 2.3.
# Plants are assessed and scored for % damage at 16 DAT.
structure (smiles),measurement,setting,value
O=c1c(-c2c(F)ccc(F)c2Cl)c(O)c2nccnc2n1CC(F)F [Compound 2.3],% damage observed 16 DAT,[1]; 37 g/ha,17%
same,% damage observed 16 DAT,[1]; 111 g/ha,40%
same,% damage observed 16 DAT,[1]; 333 g/ha,47%
same,"score on a scale from 0 to 10 (0 substantially bleached/burnt, meristem dead/white; 10 entire plant green and undamaged)",[1]; W/T_SD,0
same,"score on a scale from 0 to 10 (0 substantially bleached/burnt, meristem dead/white; 10 entire plant green and undamaged)",[1]; W/T_TC,0
same,% damage observed 16 DAT,[1]; 1000 g/ha,57%
same,"BRAPL Obs, % control score",[2]; HST inhibitor rate 15.625 g/ha,0%
same,"BRAPL Obs, % control score",[2]; HST inhibitor rate 62.5 g/ha,2%
same,"BRAPL Obs, % control score",[2]; HST inhibitor rate 250 g/ha,40%
same,"DIGSA Obs, % control score",[2]; HST inhibitor rate 15.625 g/ha,0%
same,"DIGSA Obs, % control score",[2]; HST inhibitor rate 62.5 g/ha,0%
same,"DIGSA Obs, % control score",[2]; HST inhibitor rate 250 g/ha,40%
same,"ECHCG Obs, % control score",[2]; HST inhibitor rate 15.625 g/ha,0%
same,"ECHCG Obs, % control score",[2]; HST inhibitor rate 62.5 g/ha,10%
same,"ECHCG Obs, % control score",[2]; HST inhibitor rate 250 g/ha,50%
same,"PANMI Obs, % control score",[2]; HST inhibitor rate 15.625 g/ha,0%
same,"PANMI Obs, % control score",[2]; HST inhibitor rate 62.5 g/ha,0%
same,"PANMI Obs, % control score",[2]; HST inhibitor rate 250 g/ha,50%
same,"SETFA Obs, % control score",[2]; HST inhibitor rate 15.625 g/ha,0%
same,"SETFA Obs, % control score",[2]; HST inhibitor rate 62.5 g/ha,5%
same,"SETFA Obs, % control score",[2]; HST inhibitor rate 250 g/ha,30%
same,"SIDSP Obs, % control score",[2]; HST inhibitor rate 15.625 g/ha,0%
same,"SIDSP Obs, % control score",[2]; HST inhibitor rate 62.5 g/ha,0%
same,"SIDSP Obs, % control score",[2]; HST inhibitor rate 250 g/ha,20%
same,% damage observed 16 DAT,[3]; 37 g/ha,0%
same,% damage observed 16 DAT,[3]; 111 g/ha,0%
same,% damage observed 16 DAT,[3]; 333 g/ha,3%
same,% damage observed 16 DAT,[3]; 1000 g/ha,8%
same,% damage observed 16 DAT,[4]; 37 g/ha,0%
same,% damage observed 16 DAT,[4]; 111 g/ha,3%
same,% damage observed 16 DAT,[4]; 333 g/ha,6%
same,% damage observed 16 DAT,[4]; 1000 g/ha,10%
